One compound from patent publication US12492225B2, “Melanocyte-regulating peptides” (IDP DISCOVERY PHARMA, S.L., priority 2019, dated 2025) can be followed below.

This assay deals with B16-F10 melanoma cells. In words: Measurement of melanin content in B16-F10 melanoma cells. To be noted: KA at 1 uM; FIG. 1. The class given is cell-based, mouse. On the procedure: B16-F10 melanoma cells were seeded into 25 cm^2 cell culture flask and incubated for 24 h. Then, 0.1 μM α-MSH was added and cells were treated with the aforementioned peptides at doses lower than their respective IC50 for a total of 48 h incubation. After washing twice with phosphate buffered saline, cells were dissolved in 1 mL of 1N NaOH. For measurement of melanin content, 100 μL aliquots of solution were then placed in 96-well plates and the absorbance was measured at 450 nm using microplate reader. Anti-melanin activity was expressed by the percentage of melanin to that of untreated melanoma cells. As positive control Kojic Acid (KA) was used at different concentrations (0.1, 1 and 10 μM).

Take `O=c1cc(CO)occ1O` [KA, kojic acid]: the “reduction of melanin compared with the peptides of the invention (F22) at the same concentration” value was “the reduction was substantially lower”.
